Legend:
TYRO3 = target: T1, TYRO3 (Homo sapiens, UniProt Q06418); assay: TR-FRET kinase activity assay, TYRO3; assay type: biochemical; settings: ATP at Km, 60 minutes
T1 sequence (Q06418 41-890): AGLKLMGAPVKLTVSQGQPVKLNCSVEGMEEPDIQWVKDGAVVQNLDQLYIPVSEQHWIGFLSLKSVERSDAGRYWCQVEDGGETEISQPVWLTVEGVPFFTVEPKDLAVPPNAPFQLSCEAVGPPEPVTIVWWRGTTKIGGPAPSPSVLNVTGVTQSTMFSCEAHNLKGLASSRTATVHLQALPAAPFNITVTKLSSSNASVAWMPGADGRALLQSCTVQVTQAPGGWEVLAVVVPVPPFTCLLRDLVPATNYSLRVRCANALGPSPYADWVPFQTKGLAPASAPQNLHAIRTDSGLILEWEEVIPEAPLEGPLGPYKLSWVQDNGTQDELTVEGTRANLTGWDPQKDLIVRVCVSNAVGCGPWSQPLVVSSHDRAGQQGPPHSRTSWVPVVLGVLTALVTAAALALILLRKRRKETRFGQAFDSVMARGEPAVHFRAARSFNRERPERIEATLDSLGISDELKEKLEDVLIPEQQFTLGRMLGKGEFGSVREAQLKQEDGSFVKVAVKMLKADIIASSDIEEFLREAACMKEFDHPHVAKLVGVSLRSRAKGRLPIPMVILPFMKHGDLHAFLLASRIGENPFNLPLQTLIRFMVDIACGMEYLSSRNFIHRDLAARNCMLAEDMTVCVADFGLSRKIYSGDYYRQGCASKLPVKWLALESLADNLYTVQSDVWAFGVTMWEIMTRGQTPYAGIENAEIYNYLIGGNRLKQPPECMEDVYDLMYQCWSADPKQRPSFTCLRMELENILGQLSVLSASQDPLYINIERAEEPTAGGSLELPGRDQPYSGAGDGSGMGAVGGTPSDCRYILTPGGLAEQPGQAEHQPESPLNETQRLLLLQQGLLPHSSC
Procedure: IC50 values for compound inhibition of AXL, FLT3, MERTK and TYRO3 activity were determined by using a TR-FRET activity assay. A polypeptide substrate with a fluorescent label is phosphorylated on a tyrosine by each enzyme, where the now phosphorylated product is bound by a Europium-labeled antibody specific to that phosphorylation site. The proximity between the antibody and the substrate gives a signal known as TR-FRET. As the enzyme is inhibited by compound, less phosphorylated peptide product is made causing a decrease in overall signal.
Activity assays were performed in a 384-well, small volume, black microplates in an active enzyme volume of 10 μL and final developed volume of 20 μL. Final assay conditions are 50 mM HEPES pH 7.5, 10 mM MgCl2, 1 mM EGTA, 0.01% Brij 35 and 1 mM DTT all at RT. Enzyme, substrate labeled peptide and compound are mixed, and then the reaction is initiated with the addition of ATP at Km concentration for each enzyme. The reaction is allowed to run 60 minutes and then quenched with a 12.5 mM EDTA (ethylenediamine tetraacetic acid) solution. The plate is then developed with the addition of Europium labeled antibody for a final volume of 20 μL and is then incubated for 30 minutes in darkness. Plates are read in a Pherastar plate reader. Data is analyzed in GraphPad PRISM.
The results of these assays are shown in Table 1, below, wherein “No.” designates compound number (FIG. 1); “A” represents a value of ≤100 nM; “B” a value of >100 nM and ≤1 μM; “C” a value of >1 μM and ≤10 μM; “D” a value of >10 μM; “ND” is not determined. The ratio of Mer to FLT3 is calculated as follows: FLT3 IC50/Mer IC50. “+” represents a ratio of >2.0 and <10; “++” represents a ratio of between 10 and 100; and “+++” represents a ratio of >100.

AXL = target: T2, AXL (Homo sapiens, UniProt P30530); assay: TR-FRET kinase activity assay, AXL; assay type: biochemical; settings: ATP at Km, 60 minutes
T2 sequence (P30530 26-894): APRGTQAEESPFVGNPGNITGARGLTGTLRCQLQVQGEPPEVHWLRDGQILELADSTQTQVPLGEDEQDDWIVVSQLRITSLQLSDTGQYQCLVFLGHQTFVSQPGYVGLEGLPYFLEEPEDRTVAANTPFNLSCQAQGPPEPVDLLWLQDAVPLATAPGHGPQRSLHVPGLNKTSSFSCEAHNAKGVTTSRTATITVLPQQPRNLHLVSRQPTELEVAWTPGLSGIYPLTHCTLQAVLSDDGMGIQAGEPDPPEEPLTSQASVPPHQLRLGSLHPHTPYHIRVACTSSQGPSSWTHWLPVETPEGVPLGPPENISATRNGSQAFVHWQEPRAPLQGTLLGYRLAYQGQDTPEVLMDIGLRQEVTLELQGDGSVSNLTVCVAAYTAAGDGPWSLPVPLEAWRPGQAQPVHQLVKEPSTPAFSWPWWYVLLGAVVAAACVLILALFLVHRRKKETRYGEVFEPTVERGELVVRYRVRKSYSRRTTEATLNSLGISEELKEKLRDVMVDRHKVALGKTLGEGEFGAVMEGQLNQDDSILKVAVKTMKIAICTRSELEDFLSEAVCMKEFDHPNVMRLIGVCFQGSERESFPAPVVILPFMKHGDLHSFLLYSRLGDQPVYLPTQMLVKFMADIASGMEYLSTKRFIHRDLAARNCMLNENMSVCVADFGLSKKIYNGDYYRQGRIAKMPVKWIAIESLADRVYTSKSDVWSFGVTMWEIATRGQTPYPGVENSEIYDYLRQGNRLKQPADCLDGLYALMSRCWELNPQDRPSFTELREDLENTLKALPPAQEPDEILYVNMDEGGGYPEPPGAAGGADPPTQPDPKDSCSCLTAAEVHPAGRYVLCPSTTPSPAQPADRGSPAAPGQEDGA
How it was run: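 Enzyme + labelled peptide + cpd premixed; ATP at per-enzyme Km starts rxn. 60 min RT, HEPES pH 7.5/MgCl2/EGTA/Brij 35/DTT buffer. Stop 12.5 mM EDTA, Eu phospho-Ab 30 min dark, TR-FRET read → IC50.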

Row | IC50 (TYRO3) | IC50 (AXL) | SMILES
1 | ≤ 100 nM | ≤ 100 nM | C[C@@H](CC(F)(F)F)Nc1ncc2c(-c3ccc(CN4CCOCC4)cc3)cc([C@H]3CC[C@H](O)CC3)n2n1 [Compound 203]
2 | ≤ 100 nM | 100 to 1000 nM | COC[C@H](C)Nc1ncc2c(-c3cncc(C(=O)N4CCOCC4)c3)cc([C@H]3CC[C@H](O)CC3)n2n1 [Compound 233]
3 | ≤ 100 nM | ≤ 100 nM | COC[C@H](C)Nc1ncc2c(-c3ccc(C(=O)N4CCCC4)cc3)cc([C@H]3CC[C@H](O)CC3)n2n1 [Compound 196]
4 | ≤ 100 nM | 100 to 1000 nM | COC[C@H](C)Nc1ncc2c(-c3cn(C)nn3)cc([C@H]3CC[C@H](O)CC3)n2n1 [Compound 250, (trans)-4-(2-(((S)-1-methoxypropan-2-yl)amino)-5-(1-methyl-1H-1,2,3-triazol-4-yl)pyrrolo[2,1-f][1,2,4]triazin-7-yl)cyclohexanol]
5 | ≤ 100 nM | 100 to 1000 nM | COC[C@H](C)Nc1ncc2c(-c3ccc(C(=O)N4CCN(C)CC4)nc3)cc([C@H]3CC[C@H](O)CC3)n2n1 [Compound 226]

The next lines start with the compound.

Row | SMILES | IC50 (TYRO3) | IC50 (AXL)
6 | COC[C@H](C)Nc1ncc2c(-c3cnn(C(F)F)c3)cc([C@H]3CC[C@H](O)CC3)n2n1 [Compound 207] | ≤ 100 nM | ≤ 100 nM
7 | COC[C@H](C)Nc1ncc2c(-c3ccnc(N4CCN(C)CC4)c3)cc([C@H]3CC[C@H](O)CC3)n2n1 [Compound 256] | ≤ 100 nM | ≤ 100 nM
8 | COC[C@H](C)Nc1ncc2c(-c3cccc(CN4CCN(C)CC4)c3)cc([C@H]3CC[C@H](O)CC3)n2n1 [Compound 218] | ≤ 100 nM | 100 to 1000 nM
9 | COCC[C@@H](C)Nc1ncc2c(-c3ccc(CN4CCOCC4)cc3)cc([C@H]3CC[C@H](O)CC3)n2n1 [Compound 212] | 100 to 1000 nM | 100 to 1000 nM
10 | COC[C@H](C)Nc1ncc2c(-c3cncc(S(C)(=O)=O)c3)cc([C@H]3CC[C@H](O)CC3)n2n1 [Compound 194] | ≤ 100 nM | 100 to 1000 nM

— patent US11040981B2, “Pyrrolotriazine compounds and methods of inhibiting TAM kinases” (Syros Pharmaceuticals, Inc., priority 2017, dated 2021)
